Format in all cases: cell-based, human
The subject of test [1] is PC-3 cells. Nature of the test: Antiproliferative activity, Alamar Blue assay, PC-3 cells. The conditions noted are these: for IC50: Homo sapiens, PC-3, PC3 cells, read-out: PC3 antiproliferative activity pIC50 (converted); for PC3 antiproliferative activity pIC50: PC3 cells. Put shortly: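 PC-3 cells seeded at 4.5×10^3 cells/ml, left to adhere 24 hr, then exposed to compound for 4 days. Resazurin (Alamar Blue) added for a further 24 hrs at 37° C; fluorescence read at 540/590 nm. Viability as % of untreated control, mean of 3 wells; IC50 by probit analysis, reported as pIC50.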

For test [2], the system named is HCT116 cells. The test can be described thus: Antiproliferative activity, Alamar Blue assay, HCT116 cells. On the set-up: key to HCT116 antiproliferative activity pIC50: pIC50 = -log IC50 (IC50: conc. reducing growth to 50% of control). The settings on record: for IC50: Homo sapiens, HCT-116, HCT116 cells, read-out: HCT116 antiproliferative activity pIC50 (converted); for HCT116 antiproliferative activity pIC50: HCT116 cells. The method, boiled down:
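HCT116 cells seeded, adhered 24 h, then exposed to compound for 4 days; Alamar Blue (resazurin) added for 4 h at 37 °C, fluorescence read at 540/590 nm. Viability as % of untreated control, triplicate wells; IC50 by probit analysis, reported as pIC50.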

Test [3] deals with PC3 cells. Nature of the test: EB1 Comet (microtubule disruption) assay. The conditions noted are these: 1 hour treatment; for minimal effective concentration: Homo sapiens, PC-3, 1 h, read-out: EB1 pLAC (converted). The method, boiled down: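 PC3 human prostate cancer cells exposed to compound for 1 h at 37 °C (0.6% DMSO final), methanol-fixed, immunostained for Eb1 and imaged at 20×. Value is the lowest active concentration (LAC): the concentration at which Eb1 foci are absent in at least 50% of treated cells.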

The results in this text go back to US8778966B2, “Quinolinone derivatives as PARP and tank inhibitors” (Janssen Pharmaceutica, NV, priority 2007, dated 2014).

Turning to `CCc1cc2ccc(C(C)(C#N)Cc3ccc(Cl)nc3Cl)cc2[nH]c1=O` (stereo not shown) [Compound 212], the IC50 in test [1] was 5.01 µM; in test [2], 3.16 µM.

On to `CCc1cc2ccc(C(C)(C#N)Cc3cc(C)nc(C#N)c3)cc2[nH]c1=O` (stereo not shown) [Compound 328], for which the IC50 is 1.26 µM in test [1] and 0.501 µM in test [2].

`CCc1cc2ccc(C(C)(C#N)Cc3ccnc(C#N)c3)cc2[nH]c1=O` (stereo not shown) [Compound 324]: the IC50 in test [1] was 10 µM; in test [2] it was 3.16 µM. The minimal effective concentration in test [3] was 1 µM.

On to `CCc1cc2ccc([C@@](C)(C#N)CN(C)Cc3ccc(C#N)cc3)cc2[nH]c1=O` (single isomer, unassigned) [Compound 253], for which the IC50 is 0.158 µM in test [1] and 0.0631 µM in test [2]. The minimal effective concentration in test [3] is 0.1 µM.

As for `Cc1cc2ccc(C(C)(C#N)Cc3cccc(C#N)n3)cc2[nH]c1=O` (stereo not shown) [Compound 227], the figures for the IC50 in test [1] and in test [2] were 0.631 µM and 0.501 µM, respectively. In addition, the minimal effective concentration in test [3] is 1 µM.

For the compound `CCc1cc2ccc([C@](C)(C#N)CN(C)Cc3ccc(C#N)cc3)cc2[nH]c1=O` [Compound 190], the IC50 in test [1] and in test [2] was 10 µM throughout. Besides, the minimal effective concentration in test [3] was 10 µM.

As to `CCc1cc2ccc(C(C#N)(CC)Cc3cccc(CN)c3)cc2[nH]c1=O` (stereo not shown) [Compound 390], the values for the IC50 in test [1] and in test [2] were 2.51 µM and 0.631 µM, respectively.

For the compound `CCc1cc2ccc(C(C)(C#N)Cc3cccc(-c4cnn(C)c4)c3)cc2[nH]c1=O` (stereo not shown) [Compound 17], the IC50 in test [1] was 10 µM; in test [2] it was 2.51 µM. Also, in test [3], the minimal effective concentration is 3.16 µM.

In the case of `CCc1cc2ccc(C(C)(C#N)CCOc3nccc(OC)n3)cc2[nH]c1=O` (stereo not shown) [Compound 223], the IC50 in test [1] is 6.31 µM; in test [2] it was 3.98 µM. For the same compound, the minimal effective concentration in test [3] is 1 µM.

As for `Cc1cc2ccc([C@@](C)(C#N)[C@@H]3CCCc4ccccc43)cc2[nH]c1=O` [Compound 382], the IC50 in test [1] was 10 µM; in test [2], 5.01 µM.

`CCc1cc2ccc(C(C)(C#N)CN(C)CCc3cn(C)c4ccccc34)cc2[nH]c1=O` (stereo not shown) [Compound 303]: the IC50 in test [1] is 3.16 µM; in test [2] it was 1.58 µM. Also, the minimal effective concentration in test [3] is 10 µM.

`CCc1cc2ccc(C(C)(C#N)C3CCc4ccc(Br)cc43)cc2[nH]c1=O` (single isomer, unassigned) [Compound 381]: the “PC3 antiproliferative activity pIC50” value in test [1] worked out at 7.0. Further, the “HCT116 antiproliferative activity pIC50” value in test [2] was 7.3. In addition, the “EB1 pLAC” value in test [3] worked out at 7.

Regarding `CCc1cc2ccc(C(C)(C#N)Cc3cc(C)cc(C#N)c3)cc2[nH]c1=O` (stereo not shown) [Compound 174], the IC50 in test [1] is 0.2 µM; in test [2], 0.1 µM. Also, the minimal effective concentration in test [3] is 0.1 µM.

For `CCc1cc2ccc(C(C)(C#N)Cc3cc(C)nc(Cl)c3)cc2[nH]c1=O` (stereo not shown) [Compound 326], the IC50 is 1 µM in test [1] and 0.794 µM in test [2]. The minimal effective concentration in test [3] is 3.16 µM.

With `CCc1cc2ccc(C(C)(C#N)CC3Oc4ccccc4O3)cc2[nH]c1=O` (stereo not shown) [Compound 398], the IC50 is 7.94 µM in test [1] and 5.01 µM in test [2]. The minimal effective concentration in test [3] was 3.16 µM.

For the compound `CCc1cc2ccc(C(C)(C#N)CCCN(C)C(=O)c3ccc(F)cc3)cc2[nH]c1=O` (stereo not shown) [Compound 188], the values for the IC50 in test [1] and in test [2] were 2.51 µM and 1 µM, respectively. The minimal effective concentration in test [3] was 1 µM.

Turning to `Cc1cc2ccc(C(C)(C#N)CCCCOc3ccccc3)cc2[nH]c1=O` (stereo not shown) [Compound 272], the IC50 is 5.01 µM in test [1] and 2 µM in test [2]. Moreover, the minimal effective concentration in test [3] was 1 µM.

For the compound `CCc1cc2ccc(C(C)(C#N)Cc3cc(C)cc(Br)c3)cc2[nH]c1=O` (stereo not shown) [Compound 284], the IC50 in test [1] was 0.2 µM; in test [2], 0.158 µM. Besides, the minimal effective concentration in test [3] was 0.316 µM.

Take `CCc1cc2ccc(C(C)(C#N)Cc3cc(F)cc(F)c3)cc2[nH]c1=O` (stereo not shown) [Compound 402]: the “PC3 antiproliferative activity pIC50” value in test [1] is on record as 6.4. Moreover, in test [2], the “HCT116 antiproliferative activity pIC50” value is recorded as 6.7. Besides, the “EB1 pLAC” value in test [3] was found to be 6.5.

Turning to `CCc1cc2ccc(C(C)(C#N)Cc3cccc(O)c3)cc2[nH]c1=O` (stereo not shown) [Compound 22], the IC50 in test [1] is 7.94 µM; in test [2], above 10 µM.

As for `Cc1cc2ccc(C(C)(C#N)Cc3cc(F)cc(F)c3)cc2[nH]c1=O` (stereo not shown) [Compound 282], the IC50 was 1 µM in test [1] and 0.398 µM in test [2]. For the same compound, the minimal effective concentration in test [3] was 3.16 µM.

In the case of `CCC(=O)c1cccc(CC(C)(C#N)c2ccc3cc(C)c(=O)[nH]c3c2)c1` (stereo not shown) [Compound 173], the IC50 was 0.398 µM in test [1] and 0.2 µM in test [2]. In addition, in test [3], the minimal effective concentration is 0.316 µM.

Regarding `CCc1cc2ccc(C(C)(C#N)Cc3nc(C)cc(OC)n3)cc2[nH]c1=O` (stereo not shown) [Compound 371], the IC50 is 0.398 µM in test [1] and 0.316 µM in test [2]. For the same compound, in test [3], the minimal effective concentration is 0.316 µM.

With `CCc1cc2ccc(C(C)(C#N)Cc3cccc(F)n3)cc2[nH]c1=O` (stereo not shown) [Compound 331], the IC50 in test [1] is 1.58 µM; in test [2], 0.631 µM. Further, the minimal effective concentration in test [3] is 0.1 µM.

In the case of `Cc1cc2ccc(C(C)(C#N)Cc3cccc(Oc4ncccn4)c3)cc2[nH]c1=O` (stereo not shown) [Compound 191], the IC50 in test [1] is 0.501 µM; in test [2], 0.251 µM. In test [3], the minimal effective concentration is 0.316 µM.

As for `CCc1cnc(OCCC(C)(C#N)c2ccc3cc(CC)c(=O)[nH]c3c2)nc1` (stereo not shown) [Compound 222], the results for the IC50 in test [1] and in test [2] were 3.98 µM and 3.16 µM, respectively. The minimal effective concentration in test [3] was 10 µM.

As to `CCc1cc2ccc(C(C)(C#N)Cc3cc(F)cc(C#N)c3)cc2[nH]c1=O` (stereo not shown) [Compound 266], the IC50 in test [1] is 0.398 µM; in test [2], 0.2 µM. The minimal effective concentration in test [3] is 0.316 µM.

As for `CCc1cc2ccc([C@](C)(C#N)[C@H]3CCOc4ccccc43)cc2[nH]c1=O` (single isomer, unassigned) [Compound 394], the values for the IC50 in test [1] and in test [2] were 10 µM and 7.94 µM, respectively. In test [3], the minimal effective concentration is 3.16 µM.

For the compound `Cc1cc2ccc([C@](C)(C#N)[C@@H]3CCc4cc(Br)ccc43)cc2[nH]c1=O` [Compound 242], the IC50 in test [1] was 0.0794 µM; in test [2], 0.0501 µM. Also, the minimal effective concentration in test [3] is 0.1 µM.

In the case of `CCc1cc2ccc([C@](C)(C#N)Cc3cc(F)cc(F)c3)cc2[nH]c1=O` [Compound 333], the IC50 in test [1] and in test [2] was 10 µM throughout. Also, the minimal effective concentration in test [3] was 10 µM.

Consider `CCc1cc2ccc(C(C)(C#N)CCOc3ccnc(SC)n3)cc2[nH]c1=O` (stereo not shown) [Compound 348], for which the IC50 in test [1] was 7.94 µM; in test [2], 3.16 µM. Further, the minimal effective concentration in test [3] was 10 µM.

With `CCc1cc2ccc(C(C#N)(CC)Cc3nc(OC)cc(OC)n3)cc2[nH]c1=O` (stereo not shown) [Compound 321], the IC50 in test [1] is 0.398 µM; in test [2] it was 0.316 µM. The minimal effective concentration in test [3] is 0.316 µM.

In the case of `CCc1cc2ccc([C@@](C)(C#N)[C@H]3CCOc4ccccc43)cc2[nH]c1=O` (single isomer, unassigned) [Compound 395], the IC50 in test [1] was 0.794 µM; in test [2], 0.631 µM. Besides, the minimal effective concentration in test [3] was 0.316 µM.

For the compound `CCc1cc2ccc(C(C)(C#N)C3CCc4ccc(Br)cc43)cc2[nH]c1=O` (single isomer, unassigned) [Compound 380], in test [1], the “PC3 antiproliferative activity pIC50” value was 5.5. Besides, in test [2], the “HCT116 antiproliferative activity pIC50” value is reported as 5.7. Further, the “EB1 pLAC” value in test [3] is 6.

For `CCc1cc2cc(C)c(C(C)(C#N)Cc3cccc(C#N)n3)cc2[nH]c1=O` (stereo not shown) [Compound 208], the IC50 in test [1] is 10 µM; in test [2], 6.31 µM.

`CCc1cc2ccc([C@](C)(C#N)C[C@H]3CCc4ccccc4O3)cc2[nH]c1=O` (single isomer, unassigned) [Compound 396]: the IC50 in test [1] is 7.94 µM.

As to `Cc1cc2ccc([C@](C)(C#N)[C@@H]3CCc4ccc(Br)cc43)cc2[nH]c1=O` [Compound 406], the IC50 in test [1] and in test [2] was 10 µM throughout.

For the compound `CCc1cc2ccc(C(C)(C#N)Cc3ccnc(F)c3)cc2[nH]c1=O` (stereo not shown) [Compound 330], the IC50 is 10 µM in test [1] and 5.01 µM in test [2].

With `Cc1cc2ccc([C@@](C)(C#N)[C@H]3CCc4ccc(Br)cc43)cc2[nH]c1=O` [Compound 405], the IC50 in test [1] was 0.0794 µM; in test [2], 0.0501 µM.

Turning to `Cc1cc2ccc([C@](C)(C#N)[C@H]3CCc4ccc(Br)cc43)cc2[nH]c1=O` [Compound 407], the IC50 in test [1] was 1.26 µM; in test [2] it was 0.631 µM.

Turning to `CCc1cc2ccc(C(C)(C#N)CN3CCN(c4ncc(Br)cn4)CC3)cc2[nH]c1=O` (stereo not shown) [Compound 374], the IC50 is 0.794 µM in test [1] and 0.501 µM in test [2].

For `CCc1cc2ccc(C(C#N)(CC)C3CCc4ccc(OC)cc43)cc2[nH]c1=O` (stereo not shown) [Compound 403], the IC50 was 0.316 µM in test [1] and 0.158 µM in test [2].
